# What was measured:
# Fusarium oxysporum [1] = experiment: Antifungal activity against Fusarium oxysporum assessed as inhibition of mycelia growth at 400 ppm after 1 week by filter paper method relative to control; type: functional; settings: 168 h, read-out: GI
# HeLa = experiment: Cytotoxicity against human HeLa cells measured at 48 hrs by MTT assay; type: functional, cell-based
# Fusarium oxysporum [2] = experiment: Antifungal activity against Fusarium oxysporum assessed as inhibition of mycelia growth at 200 ppm after 1 week by filter paper method relative to control; type: functional; settings: 168 h, read-out: GI
# Fusarium oxysporum [3] = experiment: Antifungal activity against Fusarium oxysporum assessed as inhibition of mycelia growth at 800 ppm after 1 week by filter paper method relative to control; type: functional; settings: 168 h, read-out: GI
# Fusarium oxysporum [4] = experiment: Antifungal activity against Fusarium oxysporum assessed as inhibition of mycelia growth at 600 ppm after 1 week by filter paper method relative to control; type: functional; settings: 168 h, read-out: GI
# Fusarium oxysporum [5] = experiment: Antifungal activity against Fusarium oxysporum assessed as inhibition of mycelia growth at 1000 ppm after 1 week by filter paper method relative to control; type: functional; settings: 168 h, read-out: GI
Compound,inhibition of growth at 400 ppm (Fusarium oxysporum [1]) [%],IC50 (HeLa) [µM],inhibition of growth at 200 ppm (Fusarium oxysporum [2]) [%],inhibition of growth at 800 ppm (Fusarium oxysporum [3]) [%],inhibition of growth at 600 ppm (Fusarium oxysporum [4]) [%],inhibition of growth at 1000 ppm (Fusarium oxysporum [5]) [%]
C[C@H]1[C@@H](OCC#Cc2ccccc2F)O[C@@H]2O[C@@]3(C)CC[C@H]4[C@H](C)CC[C@@H]1[C@@]24OO3,54.2,139,53.6,56.8,55.2,57.6
C[C@H]1[C@@H](OCCC#Cc2ccc(-c3ccc(F)cc3)s2)O[C@@H]2O[C@@]3(C)CC[C@H]4[C@H](C)CC[C@@H]1[C@@]24OO3,66.9,36.6,66.4,69.9,68,71
C[C@H]1[C@@H](OCCC#Cc2cccc(-c3ccc(F)cc3)c2)O[C@@H]2O[C@@]3(C)CC[C@H]4[C@H](C)CC[C@@H]1[C@@]24OO3,65.2,112,64,68,66.4,69.8
C[C@H]1[C@@H](OCCC#Cc2ccc(-c3ccc(F)cc3)cc2)O[C@@H]2O[C@@]3(C)CC[C@H]4[C@H](C)CC[C@@H]1[C@@]24OO3,67.9,13.1,67,71,70.2,72.8
C[C@H]1[C@@H](OCCC#Cc2ccc(F)nc2)O[C@@H]2O[C@@]3(C)CC[C@H]4[C@H](C)CC[C@@H]1[C@@]24OO3,63.9,20.9,62.4,66.4,65,67.8
C[C@H]1[C@@H](OCC#Cc2cccc(F)c2)O[C@@H]2O[C@@]3(C)CC[C@H]4[C@H](C)CC[C@@H]1[C@@]24OO3,61.8,14,60,64,62,65.2
C[C@H]1[C@@H](OCC#Cc2ccc(F)nc2)O[C@@H]2O[C@@]3(C)CC[C@H]4[C@H](C)CC[C@@H]1[C@@]24OO3,58.4,,56.4,62.5,61,63.8
C#CCO[C@H]1O[C@@H]2O[C@@]3(C)CC[C@H]4[C@H](C)CC[C@@H]([C@H]1C)[C@@]24OO3,66.4,,64.8,70.2,68.8,72
C[C@@H]1CC[C@H]2[C@@H](C)C(=O)O[C@@H]3O[C@@]4(C)CC[C@@H]1[C@]32OO4 [ARTEMISININ],75.5,493,72,77.2,76,78.5
C#CCCO[C@H]1O[C@@H]2O[C@@]3(C)CC[C@H]4[C@H](C)CC[C@@H]([C@H]1C)[C@@]24OO3,73.2,,70,76.8,75.4,77.6
C[C@H]1[C@@H](OCC#Cc2ccc(F)cc2)O[C@@H]2O[C@@]3(C)CC[C@H]4[C@H](C)CC[C@@H]1[C@@]24OO3,54.4,26.3,53.5,57.6,56,59
C[C@H]1[C@@H](OCCC#Cc2ccc(-c3cccc(C(F)(F)F)c3)cc2)O[C@@H]2O[C@@]3(C)CC[C@H]4[C@H](C)CC[C@@H]1[C@@]24OO3,66.5,,65.6,69,67.6,70.2

# Source: ChEMBL document CHEMBL3600327, “Synthesis of a novel series of fluoroarene derivatives of artemisinin as potent antifungal and anticancer agent” (Bioorg Med Chem Lett, 2015)
